# Results reported in patent US12344826B2, “Apparatus and methods for in vitro preclinical human trials” (THE GEORGE WASHINGTON UNIVERSITY, A CONGRESSIONALLY …, priority 2017, dated 2025).
# Assays:
# [1] = test system: action potential (AP) morphology; conditions: blebbistatin 10 μM used to immobilize tissue; cited from earlier work
# human cardiac slices = assay: Acute vs chronic phenylephrine in cultured human cardiac slices, electrophysiology by optical mapping; assay type: cell-based; conditions: 3 μM phenylephrine, acute application vs slices cultured 24 hours in drug medium
# Procedure: Utilizing cultured slices and an adult dosage of phenylephrine, a widely used selective α1-adrenergic receptor agonist, a model to study chronic drug effects in human cardiac slices is developed. Slice electrophysiology was first acutely measured using optical mapping after application of 3 μM phenylephrine.
SMILES,effects in action potential (AP) morphology [1],"Two electrophysiology parameters, acute vs chronic stimulation modes (human cardiac slices)"
Cc1ccc2c(c1)C(=O)C1(O)CCN(c3ccccc3)C1=N2 (centres unmarked) [blebbistatin],no significant effects,–
CNC[C@H](O)c1cccc(O)c1 [phenylephrine],–,substantial difference
